According to patent US9555029B2 (HIKMA PHARMACEUTICALS, priority 2013, dated 2017):
Read-outs that look alike come from different tables or passages of the source.

What was measured:
[1] = cited from earlier work
[2] = cited from earlier work; for AUCT / Cmax: geometric mean
[3] = cited from earlier work; for Kel / T1/2el: arithmetic mean; for AUCT / Cmax: geometric mean
[4] = cited from earlier work; for Kel / T1/2el: arithmetic mean
[5] = clinical; conditions: human, plasma, oral
[6] = colchicine coadministered with clarithromycin
[7] = colchicine coadministered with cyclosporine
[8] = colchicine coadministered with diltiazem ER
[9] = colchicine coadministered with ketoconazole
[10] = colchicine coadministered with ritonavir
[11] = colchicine coadministered with verapamil ER
[12] = Treatment-1: colchicine 0.6 mg alone (day 1, fasted), ritonavir study, arithmetic mean
[13] = Treatment-1: colchicine 0.6 mg alone (day 1, fasted), ritonavir study
[14] = Treatment-2: colchicine 0.6 mg (day 19) + ritonavir 100 mg twice daily (days 15-19)
[15] = Treatment-1: colchicine 0.6 mg alone (day 1, fasted), diltiazem ER study
[16] = Treatment-2: colchicine 0.6 mg (day 21) + diltiazem ER 240 mg once daily (days 15-21)
[17] = of 12 subjects, colchicine + propafenone
[18] = of 12 subjects, propafenone study
[19] = Treatment-1: colchicine 0.6 mg alone (day 1, fasted), verapamil ER study
[20] = Treatment-1: colchicine 0.6 mg alone (day 1, fasted), verapamil ER study, geometric mean
[21] = Treatment-2: colchicine 0.6 mg (day 19) + verapamil ER 240 mg once daily (days 15-19)

Structure (SMILES): COc1cc2c(c(OC)c1OC)-c1ccc(OC)c(=O)cc1[C@@H](NC(C)=O)CC2 [Colchicine, (S)N-(5,6,7,9-tetrahydro-1,2,3,10-tetramethoxy-9-oxobenzo[alpha]heptalen-7-yl)acetamide]
- Percent of 24 subjects with adverse events overall [1, 6]: (58.3) %
- Total number of adverse events [1, 6]: 26
- Number of 24 subjects with adverse events overall [1, 7]: 6
- Percent of 24 subjects with adverse events overall [1, 7]: (25.0%)
- Total number of adverse events [1, 7]: 5
- Number of 24 subjects with adverse events overall [1, 8]: 14
- Percent of 24 subjects with adverse events overall [1, 8]: (58.3) %
- Total number of adverse events [1, 8]: 21
- Number of 24 subjects with adverse events overall [1, 9]: 10
- Percent of 24 subjects with adverse events overall [1, 9]: (41.7) %
- Total number of adverse events [1, 9]: 11
- Number of 24 subjects with adverse events overall [1, 10]: 5
- Percent of 24 subjects with adverse events overall [1, 10]: (20.8) %
- Total number of adverse events [1, 10]: 8
- Number of 24 subjects with adverse events overall [1, 11]: 14
- Percent of 24 subjects with adverse events overall [1, 11]: (58.3) %
- Total number of adverse events [1, 11]: 22
- Kel [2, 12]: 0.1666 h⁻¹
- T1/2el [2, 12]: 5.15 h
- CLTOT/F [2, 13]: 67.93 L/h
- AUCT [2, 13]: 8,410 pg · h/mL
- Cmax [2, 13]: 1,870 pg/mL
- T1/2el ([2]; Treatment-2: colchicine 0.6 mg (day 19) + ritonavir 100 mg twice daily (days 15-19), arithmetic mean): 17.41 h
- CLTOT/F [2, 14]: 18.59 L/h
- AUCT [2, 14]: 29,050 pg · h/mL
- Cmax [2, 14]: 4,990 pg/mL
- Kel [3, 15]: 0.1589 h⁻¹
- T1/2el [3, 15]: 5.51 h
- CLTOT/F [3, 15]: 58.88 L/h
- AUCT [3, 15]: 10,040 pg · h/mL
- Cmax [3, 15]: 2,170 pg/mL
- Kel [3, 16]: 0.0838 h⁻¹
- T1/2el [3, 16]: 12.5 h
- CLTOT/F [3, 16]: 34.7 L/h
- AUCT [3, 16]: 12,730 pg · h/mL
- Cmax [3, 16]: 2,800 pg/mL
- Total number of adverse events after Treatment-2 (colchicine + propafenone): 1
- Number of subjects experiencing adverse events after Treatment-2 [17]: 1
- Percent of subjects experiencing adverse events after Treatment-2 [17]: 8.3%
- Number of subjects experiencing adverse events after Treatment-1 [18]: 9
- Percent of subjects experiencing adverse events after Treatment-1 [18]: 75.0%
- Number of adverse events requiring medication after Treatment-1 (propafenone study): None
- Number of serious adverse events or deaths (propafenone study): None
- Total number of adverse events after Treatment-1 (propafenone study): 19
- Kel [4, 19]: 0.1409 h⁻¹
- T1/2el [4, 19]: 4.3 h
- CLTOT/F [4, 19]: 43.93 L/h
- AUCT [4, 20]: 13,090 pg · h/mL
- Cmax [4, 20]: 2,970 pg/mL
- Kel [4, 21]: 0.0480 h⁻¹
- T1/2el [4, 21]: 17.17 h
- CLTOT/F [4, 21]: 21.01 L/h
- Cmax ([4]; Treatment-2: colchicine 0.6 mg (day 19) + verapamil ER 240 mg once daily (days 15-19), geometric mean): 3,850 pg/mL
- AUC(0-t) ([5]; both, AUCT, Treatment-2 (day 9): colchicine 0.6 mg + cimetidine 800 mg after double dose day 4, once daily days 5-8, fasted, mean): 18.1 ng·h/mL
- CL/F ([5]; 0.6 mg): 465 mL/min
- Tmax ([5]; 0.6 mg): 1.25 h
- Vd/F ([5]; 0.6 mg): 1410 L
- AUC(0-t) ([5]; 0.6 mg, AUCT GEOMETRIC LSMEANS, Treatment-1: colchicine 0.6 mg alone, cimetidine study): 19.3 ng·h/mL
- AUC(0-t) ([5]; 0.6 mg, AUCT, Treatment-1 (day 1): colchicine 0.6 mg alone, fasted, cimetidine study, mean): 20.4 ng·h/mL
- AUC(0-inf) ([5]; 0.6 mg, AUC∞ GEOMETRIC LSMEANS, Treatment-1: colchicine 0.6 mg alone, cimetidine study): 22.6 ng·h/mL
- AUC(0-inf) ([5]; 0.6 mg, AUC∞, Treatment-1 (day 1): colchicine 0.6 mg alone, fasted, cimetidine study, mean): 24 ng·h/mL
- Cmax ([5]; 0.6 mg, Cmax GEOMETRIC LSMEANS, Treatment-1: colchicine 0.6 mg alone, cimetidine study): 2.78 ng/mL
- Cmax ([5]; 0.6 mg, Cmax, Treatment-1 (day 1): colchicine 0.6 mg alone, fasted, cimetidine study, mean): 3 ng/mL
- AUC(0-t) ([5]; AUCT GEOMETRIC LSMEANS, Treatment-2: colchicine 0.6 mg + cimetidine): 16.7 ng·h/mL
- AUC(0-inf) ([5]; AUC∞ GEOMETRIC LSMEANS, Treatment-2: colchicine 0.6 mg + cimetidine): 19.3 ng·h/mL
- AUC(0-inf) ([5]; AUC∞, Treatment-2 (day 9): colchicine 0.6 mg + cimetidine 800 mg after double dose day 4, once daily days 5-8, fasted, mean): 21 ng·h/mL
- Cmax ([5]; Cmax GEOMETRIC LSMEANS, Treatment-2: colchicine 0.6 mg + cimetidine): 1.88 ng/mL
- Cmax ([5]; Cmax, Treatment-2 (day 9): colchicine 0.6 mg + cimetidine 800 mg after double dose day 4, once daily days 5-8, fasted, mean): 2.11 ng/mL
